These results are taken from patent publication US10695341B2, “Compositions and methods for treating endometriosis” (UNIVERSITY OF SOUTH FLORIDA, priority 2014, dated 2020).

One test relates to endometriotic lesions. Briefly: Induced murine endometriosis model, lesion count (Example 6). Type of test: in vivo, C57BL/6 mice. The protocol: To determine whether treatment with HCQ alters the formation of endometriotic lesions, an induced model of murine endometriosis in which mice receive injections of uterine horn fragments that develop into lesions within 2 weeks was utilized. Receipient (endometriosis-induced) mice were treated with 60 mg/kg HCQ21 or phosphate-buffered saline (PBS, FIG. 12). This treatment was repeated once every seven days post-induction. Mice that were neither injected with uterine horn fragments nor treated were used as controls (FIG. 39). All of the mice were euthanized at the same time (14 days after endometriosis induction for both the PBS and HCQ treatment groups). Ectopic lesions that developed in the recipient mice (white arrow, FIGS. 40A-40B) were counted, measured, and collected for RNA and protein analysis, as well as for histological staining. […] The majority (87.5%) of endometriosis-induced mice developed lesions. At the time of collection, we noted that the endometriotic lesions varied in size, color, and location across the treatment groups.
Five-week-old C57BL/6 female mice were purchased from Jackson laboratories. All animals were maintained under standard 12 h photoperiod; food and water were available ad libitum throughout the study. […] Lesions were measured using a caliper. Volume of the lesions was calculated according to the formula: 4/3πr^2R.

For test [1], the system named is G-CSF, eotaxin, and IP-10. The test is described as follows: Peritoneal fluid cytokine/chemokine magnetic bead panel. It counts as in vivo, mouse. The protocol:
After animals were euthanized, 1 ml of sterile PBS was injected into the peritoneal cavity, the abdominal area was gently massaged, and the fluid collected. The collected fluid was centrifuged at 1,390 rpm for 5 min at 4° C. and the resulting supernatant was then stored at −80° C. Levels of chemokines and cytokines were analyzed using a MCYTOMAG-70K-PX32 (Millipore, Billerica, Mass.) following manufacturer's instructions. Briefly, 200 μl of wash buffer was added to each well and incubated for 10 min at room temperature in a plate shaker. After incubation, the wash buffer was decanted and the plate was inverted and tapped on absorbent towel several times. Then, 25 μl of assay buffer was added to each well followed by 25 μl of concentration standards, assay controls, or samples. The premixed bottle was vortexed and 25 μl of the beads were added to each well. The plate was incubated overnight at 4° C., protected from light. Then the plate was incubated for 1 min on the hand-held magnet and the well content was gently decanted and tapped on absorbent pads. Each well was washed twice using 200 μl of wash buffer, followed by the incubation on the hand-held magnet. Antibody detection solution was allowed to warm to room temperature, and then 25 μl was added to each well and incubated for 1 h at room temperature on a plate shaker, protected from light. Next, 25 μl of Streptavidin-Phycoerythrin was added to each well containing the detection antibodies and incubated for 30 min at room temperature protected from light on a plate shaker. After the incubation, the plate was washed twice as previously described and 150 μl of Sheath Fluid was added to each well. The plate was analyzed using MAGPIX™ instrument and xPONENT software solutions, version 4.2.

Where [2] appears, read: HCQ-treated vs PBS-treated mice.

Structures are written as SMILES.

As to `CCN(CCO)CCCC(C)Nc1ccnc2cc(Cl)ccc12` (centres unmarked) [HCQ, hydroxychloroquine], the “number of lesions that developed vs PBS” value in the test on endometriotic lesions (60 mg/kg HCQ i.p., repeated after seven days, 14 days after induction, p=0.0007) is recorded as “significant reduction”. In addition, in the test on endometriotic lesions (60 mg/kg HCQ, n=25 mice (PBS: 46 lesions in n=24)), the “total number of lesions in treatment group” value came out at 18. Besides, the “IP-10 in peritoneal fluid” value in test [1] (HCQ-treated (n=5) vs PBS-treated mice, p=0.0079) is reported as “significantly increased”. Further, in test [1] (setting [2]), the “G-CSF in peritoneal fluid” value is “remained unchanged” and the “eotaxin in peritoneal fluid” value is on record as “remained unchanged”.
